In this assay the target is BACE1 (Homo sapiens (Human), UniProt P56817). Nature of the assay: BACE1 efficacy assay (FRET-based, commercial BACE1 kit). It is filed as biochemical. The note with it: test compound 10 μM. Here is the method:
The efficacy assay was performed as a FRET-based assay using a commercially available BACE1 kit (Life Technologies, P2985). 2 μl test compound at 10 μM (final concentration) and 15 μl BACE1 enzyme from the kit (final concentration 3 nM) were preincubated for 15 minutes at room temperature before addition of 15 μl of substrate from the kit (250 nM final concentration) and incubated for additional 90 minutes at room temperature. The assay plate was subsequently read in a Pherastar (Ex540/Em590). The enzyme activity observed in presence of test compound were normalized to the enzyme activity observed in presence of buffer and 10 μM (final concentration) of the high affinity BACE1 reference inhibitor (S)-6-[3-Chloro-5-(5-prop-1-ynyl-pyridin-3-yl)-thiophen-2-yl] -2-imino-3,6-dimethyl-tetra-hydropyrimidin-4-one, respectively. The efficacy of the test compounds was evaluated at 10 μM (final concentration) and defined as the percent inhibition of the enzyme activity using the equation %inhibition=100% -normalized enzyme activity in percent.
Chain of BACE1 (P56817 46-501): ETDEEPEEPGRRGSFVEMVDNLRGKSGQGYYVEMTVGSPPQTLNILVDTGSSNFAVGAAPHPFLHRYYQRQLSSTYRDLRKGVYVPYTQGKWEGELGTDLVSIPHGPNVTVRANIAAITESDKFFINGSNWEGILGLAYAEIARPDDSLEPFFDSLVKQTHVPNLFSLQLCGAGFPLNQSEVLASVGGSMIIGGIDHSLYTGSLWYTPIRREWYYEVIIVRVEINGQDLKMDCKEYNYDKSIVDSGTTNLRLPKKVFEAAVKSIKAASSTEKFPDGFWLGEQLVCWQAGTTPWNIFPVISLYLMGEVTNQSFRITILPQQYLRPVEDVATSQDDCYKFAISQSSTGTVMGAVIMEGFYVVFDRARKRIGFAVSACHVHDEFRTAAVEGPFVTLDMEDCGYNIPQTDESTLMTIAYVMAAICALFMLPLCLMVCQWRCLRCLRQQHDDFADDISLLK
For orientation: inhibition means the relative decrease from the control value, in per cent. `NC1=N[C@@](c2cc(NC(=O)c3ccc(Cl)cn3)ccc2F)(C(F)F)C(F)(F)CC1` [Compound 1, (S)-N-(3-(6-amino-2-(difluoromethyl)-3,3-difluoro-2,3,4,5-tetrahydropyridin-2-yl)-4-fluorophenyl)-5-chloropicolinamide]: the inhibition at 10 µM came out at 106%.

Turning to `NC1=N[C@@](c2cc(NC(=O)c3ccc(F)cn3)ccc2F)(C(F)F)C(F)(F)CC1` [Compound 2, (S)-N-(3-(6-amino-2-(difluoromethyl)-3,3-difluoro-2,3,4,5-tetrahydropyridin-2-yl)-4-fluorophenyl)-5-fluoropicolinamide], the inhibition at 10 µM came out at 100%. As to `COc1cnc(C(=O)Nc2ccc(F)c([C@@]3(C(F)F)N=C(N)CCC3(F)F)c2)cn1` [Compound 3], the inhibition at 10 µM worked out at 103%. Take `Cc1nc(C(=O)Nc2ccc(F)c([C@@]3(C(F)F)N=C(N)CCC3(F)F)c2)co1` [Compound 4, (S)-N-(3-(6-amino-2-(difluoromethyl)-3,3-difluoro-2,3,4,5-tetrahydropyridin-2-yl)-4-fluorophenyl)-2-methyloxazole-4-carboxamide]: the inhibition at 10 µM is 104%. For the compound `COc1ccc(C(=O)Nc2ccc(F)c([C@@]3(C(F)F)N=C(N)CCC3(F)F)c2)nc1` [Compound 5, (S)-N-(3-(6-amino-2-(difluoromethyl)-3,3-difluoro-2,3,4,5-tetrahydropyridin-2-yl)-4-fluorophenyl)-5-methoxypicolinamide], the inhibition at 10 µM amounted to 101%.

Take `NC1=N[C@@](c2cc(NC(=O)c3cnc(C(F)F)cn3)ccc2F)(C(F)F)C(F)(F)CC1` [Compound 6, (S)-N-(3-(6-amino-2-(difluoromethyl)-3,3-difluoro-2,3 ,4,5-tetrahydropyridin-2-yl)-4-fluorophenyl)-5-(difluoromethyl)pyrazine-2-carboxamide]: the inhibition at 10 µM stood at 103%. As for `Cc1csc(C(=O)Nc2ccc(F)c([C@@]3(C(F)F)N=C(N)CCC3(F)F)c2)n1` [Compound 8, (S)-N-(3-(6-amino-2-(difluoromethyl)-3,3-difluoro-2,3,4,5-tetrahydropyridin-2-yl)-4-fluoro-phenyl)-4-methylthiazole-2-carboxamide], the figure is 102%; as for `COc1cnc(C(=O)Nc2ccc(F)c([C@@]3(C(F)F)N=C(N)CCC3(F)F)c2)nc1` [Compound 9, (S)-N-(3-(6-amino-2-(difluoromethyl)-3,3-difluoro-2,3,4,5-tetrahydropyridin-2-yl)-4-fluorophenyl)-5-methoxypyrimidine-2-carboxamide], 103%. For the compound `COc1cnc(C(=O)Nc2ccc(F)c([C@@]3(C(F)F)N=C(N)CCC3(F)F)c2)c(C)n1` [Compound 10, (S)-N-(3-(6-amino-2-(difluoromethyl)-3,3-difluoro-2,3,4,5-tetrahydropyridin-2-yl)-4-fluorophenyl)-5-methoxy-3-methylpyrazine-2-carboxamide], the inhibition at 10 µM amounted to 106%. In the case of `[2H]C([2H])([2H])Oc1ccc(C(=O)Nc2ccc(F)c([C@@]3(C(F)F)N=C(N)CCC3(F)F)c2)nc1` [Compound 13, (S)-N-(3-(6-amino-2-(difluoromethyl)-3,3-difluoro-2,3,4,5-tetrahydropyridin-2-yl)-4-fluorophenyl)-5-(methoxy-d3)picolinamide], the inhibition at 10 µM worked out at 103%. `[2H]C([2H])([2H])Oc1cnc(C(=O)Nc2ccc(F)c([C@@]3(C(F)F)N=C(N)CCC3(F)F)c2)cn1` [Compound 14, (S)-N-(3-(6-amino-2-(difluoromethyl)-3,3-difluoro-2,3,4,5-tetrahydropyridin-2-yl)-4-fluorophenyl)-5-(methoxy-d3)pyrazine-2-carboxamide]: the inhibition at 10 µM amounted to 108%.

Values taken from patent US10045974B2, “2-amino-6-(difluoromethyl)-5,5-difluoro-6-phenyl-3,4,5,6-tetrahydropyridines as BACE1 inhibitors” (H. Lundbeck A/S, priority 2014, dated 2018).
